Results published in PubChem BioAssay AID743319 (Broad Institute, 2014).
Active and inactive are the calls of the source.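 The calls were made as follows: active = fitted curve reaches 200% activation at or below the highest valid dose tested for that compound; inconclusive = flat fit between 30 and 70% activation, or unreliable fit; inactive = the rest.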

Target: Endoplasmic reticulum aminopeptidase 2 (Homo sapiens) (UniProt Q6P179)
Assay: ERAP2 activation by compounds, dose response, selectivity assay for selective ERAP1 modulator project, biochemical, fluorescence plate reader, cherry-picked samples (AID 743319)
Details: recombinant ERAP2, Arg-AMC cleavage fluorescence, 1 h

Endoplasmic reticulum aminopeptidase 2 (Homo sapiens), sequence (Q6P179 whole entry, looked up): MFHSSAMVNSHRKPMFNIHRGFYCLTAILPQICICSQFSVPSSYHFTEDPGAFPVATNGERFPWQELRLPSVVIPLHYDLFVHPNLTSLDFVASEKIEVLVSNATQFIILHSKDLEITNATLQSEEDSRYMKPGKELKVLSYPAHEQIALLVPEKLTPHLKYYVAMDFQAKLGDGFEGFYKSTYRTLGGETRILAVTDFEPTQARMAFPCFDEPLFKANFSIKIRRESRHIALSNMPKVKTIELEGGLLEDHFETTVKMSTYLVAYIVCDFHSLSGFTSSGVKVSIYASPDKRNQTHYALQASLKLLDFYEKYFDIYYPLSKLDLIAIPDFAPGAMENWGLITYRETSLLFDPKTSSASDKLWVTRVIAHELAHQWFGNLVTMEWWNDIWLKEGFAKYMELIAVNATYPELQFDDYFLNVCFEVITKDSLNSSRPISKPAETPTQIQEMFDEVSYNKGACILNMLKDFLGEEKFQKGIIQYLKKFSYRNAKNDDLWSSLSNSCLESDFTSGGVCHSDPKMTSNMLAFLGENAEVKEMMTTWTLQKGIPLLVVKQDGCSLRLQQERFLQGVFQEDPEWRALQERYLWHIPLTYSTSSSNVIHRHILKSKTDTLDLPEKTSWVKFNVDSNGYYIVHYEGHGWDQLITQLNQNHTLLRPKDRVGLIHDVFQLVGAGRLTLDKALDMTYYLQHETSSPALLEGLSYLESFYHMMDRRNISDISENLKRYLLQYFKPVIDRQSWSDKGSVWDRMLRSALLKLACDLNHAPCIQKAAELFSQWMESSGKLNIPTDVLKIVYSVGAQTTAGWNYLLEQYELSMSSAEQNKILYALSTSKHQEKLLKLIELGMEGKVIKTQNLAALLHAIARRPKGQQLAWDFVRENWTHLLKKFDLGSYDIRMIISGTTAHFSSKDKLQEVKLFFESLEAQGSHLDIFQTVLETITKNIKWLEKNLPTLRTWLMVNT

Q: With `Cc1ccc(-c2cc(C(=O)N3CCCC3)c3ccccc3n2)s1` as the compound, how does the AC200 read?
A: Its AC200 is > 11000 nM (inactive).

Q: For `O=c1ccc2cc(O)c(O)cc2o1`, which AC200 is on record?
A: The AC200 was 3270 nM.

Q: With `COc1cc2ccc(=O)oc2cc1O` as the compound, how does the AC200 read?
A: The AC200 was 678 nM.

Q: With `O=c1oc2c(CN3CCN(CCO)CC3)c(O)ccc2cc1-c1ccccn1` as the compound, how does the AC200 read?
A: The AC200 was 606 nM.

Q: How did the AC200 turn out when `COc1ccc(C2=NN(c3ccc(C(=O)O)cc3)C(c3ccc(OC)c(OC)c3)C2)cc1` (configuration not stated) was run?
A: Its AC200 is 1580 nM.

Q: `CCN1CCN(Cc2c(O)ccc3c(C)cc(=O)oc23)CC1` was tested. Which AC200 did it give?
A: Its AC200 is 3230 nM.

Q: How did the AC200 turn out when `O=c1cc(CN2CCN(Cc3ccccc3)CC2)c2ccc(O)cc2o1` was run?
A: The AC200 was 3540 nM.

Q: `CC(=O)Oc1cc2oc(=O)cc(C)c2cc1Cl` was tested. Which AC200 did it give?
A: Its AC200 is 1100 nM.

Q: For `CCc1cc(=O)oc2c(CN3CCN(C)CC3)c(O)ccc12`, which AC200 is on record?
A: The AC200 was 3170 nM.

Q: How did the AC200 turn out when `O=c1ccc2cc(O[C@@H]3O[C@H](CO)[C@@H](O)[C@H](O)[C@H]3O)c(O)cc2o1` was run?
A: The AC200 was 687 nM.

Q: `O=c1ccc2cc(OC3O[C@H](CO)[C@@H](O)[C@H](O)[C@H]3O)c(O)cc2o1` (some centres not stated) was tested. Which AC200 did it give?
A: Its AC200 is 857 nM.

Q: `Cc1ccc2nc3c(cc(C(=O)NCc4ccccc4)c(=N)n3CCCn3ccnc3)c(=O)n2c1` was tested. Which AC200 did it give?
A: The AC200 was > 11000 nM (inactive).

Q: With `Cc1c(C)c2ccc(O)c(CN3CCN(C)CC3)c2oc1=O` as the compound, how does the AC200 read?
A: The AC200 was 3430 nM.

Q: Which AC200 does the source give for `O=c1oc2cc(O)ccc2cc1S(=O)(=O)c1ccccc1` here?
A: Its AC200 is 592 nM.

Q: With `CCN(CC)Cc1c(O)c(Cl)cc2c(C)cc(=O)oc12` as the compound, how does the AC200 read?
A: The AC200 was 1240 nM.

Q: How did the AC200 turn out when `CCc1c(C)c2cc(Cl)c(O)c(CN(CC)CC)c2oc1=O` was run?
A: The AC200 was 1170 nM.

Q: With `CCCc1cc(=O)oc2c(CN(CC)CC)c(O)c(Cl)cc12` as the compound, how does the AC200 read?
A: The AC200 was 1330 nM.

Q: `CCN(CC)c1ccc2c(C)c(Cl)c(=O)oc2c1` was tested. Which AC200 did it give?
A: Its AC200 is 1420 nM.

Q: Which AC200 does the source give for `CCc1cc(=O)oc2c(CNCc3c(F)cccc3Cl)c(O)ccc12` here?
A: The AC200 was 1870 nM.

Q: How did the AC200 turn out when `O=C(NCc1ccccn1)[C@@H]1[C@@H](CO)[C@@H]2Cn3c(ccc(/C=C/c4ccccc4)c3=O)[C@H]1N2CC1CC1` was run?
A: Its AC200 is 2270 nM.

Q: How did the AC200 turn out when `COc1ccc(-c2cc3ccc(O)cc3oc2=O)cc1` was run?
A: The AC200 was 775 nM.

Q: Which AC200 does the source give for `Cc1cc(=O)oc2c(CN3CCN(CCO)CC3)c(O)ccc12` here?
A: The AC200 was 3010 nM.

Q: Which AC200 does the source give for `Cc1c(C)c2ccc(O)c(CN3CCCC3)c2oc1=O` here?
A: The AC200 was 2100 nM.

Q: `O=S(=O)(O)c1ccc(N2N=C(c3ccccc3)CC2c2ccccc2)cc1` (configuration not stated) was tested. Which AC200 did it give?
A: Its AC200 is 2050 nM.

Q: For `Cc1c(-c2ccccc2)c(=O)oc2cc(O)ccc12`, which AC200 is on record?
A: The AC200 was 2340 nM.

Q: For `CCC(=O)N1[C@@H]2c3ccc(/C=C/c4ccccc4)c(=O)n3C[C@H]1[C@H](CO)[C@H]2C(=O)N(C)C`, which AC200 is on record?
A: Its AC200 is 1690 nM.

Q: How did the AC200 turn out when `O=c1cc(CN2CCOCC2)c2cc(Cl)c(O)cc2o1` was run?
A: Its AC200 is 2510 nM.

Q: How did the AC200 turn out when `CN(C)Cc1c(O)ccc2cc(-c3nc4ccccc4n3C)c(=O)oc12` was run?
A: The AC200 was 445 nM.

Q: `Cc1cc(=O)oc2c(CN3CCCCC3)c(O)ccc12` was tested. Which AC200 did it give?
A: The AC200 was 1920 nM.

Q: Which AC200 does the source give for `COCCCn1c(C(=O)N2CCOCC2)cc2c(=O)n3ccccc3nc21` here?
A: Its AC200 is 6360 nM.

Q: With `CN1[C@@H]2Cn3c(ccc(/C=C/c4ccccc4)c3=O)[C@H]1[C@@H](C(=O)NC1CCCC1)[C@@H]2CO` as the compound, how does the AC200 read?
A: The AC200 was 1900 nM.

Q: For `COC(=O)[C@H]1[C@H](CO)[C@H]2Cn3c(ccc(/C=C/c4ccccc4)c3=O)[C@@H]1N2C(=O)C1CCC1`, which AC200 is on record?
A: Its AC200 is 1600 nM.

Q: For `CCN(CC)Cc1c(O)ccc2cc(-c3nc4ccccc4n3C)c(=O)oc12`, which AC200 is on record?
A: Its AC200 is 436 nM.

Same assay, conditions: recombinant ERAP2, Arg-AMC cleavage fluorescence, 1 h; at 5 µM (top of the series)

Q: With `CCCN(C)C[C@@H]1OCCCC[C@@H](C)Oc2ccc(NS(=O)(=O)c3ccc(C)cc3)cc2C(=O)N([C@@H](C)CO)C[C@@H]1C` as the compound, how does the activation read?
A: Its activation is 6.28% (inactive).

Same assay, conditions: recombinant ERAP2, Arg-AMC cleavage fluorescence, 1 h; at 5.6 µM (top of the series)

Q: Which activation does the source give for `C[C@@H]1CCCCO[C@@H](CN(C)Cc2ccccc2)[C@@H](C)CN([C@H](C)CO)C(=O)c2cc(NS(=O)(=O)c3cccs3)ccc2O1` here?
A: The activation was 12.1% (inactive).

Same assay, conditions: recombinant ERAP2, Arg-AMC cleavage fluorescence, 1 h; at 8 µM (top of the series)

Q: For `CCCN(C)C[C@@H]1OCCCC[C@@H](C)Oc2ccc(NS(=O)(=O)c3ccc(OC)cc3)cc2C(=O)N([C@H](C)CO)C[C@@H]1C`, which activation is on record?
A: Its activation is 15.1% (inactive).

Same assay, conditions: recombinant ERAP2, Arg-AMC cleavage fluorescence, 1 h; at 10 µM (top of the series)

Q: `Cc1noc(C)c1S(=O)(=O)N(C)C[C@@H]1OCCCC[C@@H](C)Oc2ccc(NS(=O)(=O)c3cccs3)cc2C(=O)N([C@@H](C)CO)C[C@@H]1C` was tested. Which activation did it give?
A: Its activation is 21.7% (inactive).
